Experimental findings from PMC12708883 (Frontiers in Microbiology, 2025) are described below.

The target in data set [1] is T1, BrnQ (Escherichia coli, UniProt P0AD99).
T1 construct: native chromosomal gene, sole carrier in livKHMGF yhjE double mutant cells
Briefly: radiolabelled uptake into whole cells, […] min. The format is cell-based. The note with it: sole carrier strain, M9 + 0.2% glucose, 37 °C; labelled compound.

Data set [2] addresses YhjE (Escherichia coli, UniProt P37643, T276I). Briefly: radiolabelled uptake into whole cells, […] min. The note with it: 50 μM substrate, M9 + 0.2% glucose, 37 °C; B2933 with mutant pBR-yhjE; labelled compound. Format: cell-based.
Data set [3] has as its target T2, LIV-I (LivJFGHM) (Escherichia coli, UniProt P0AD96).
T2 construct: gene livJ; native chromosomal genes, sole carrier in brnQ yhjE double mutant cells
Briefly: radiolabelled uptake into whole cells, […] min. Format: cell-based. The note with it: sole carrier strain, M9 + 0.2% glucose, 37 °C; labelled compound.

The target of data set [4] is YhjE (Escherichia coli, UniProt P37643, S271F/V290M). Briefly: radiolabelled uptake into whole cells, […] min. Format: cell-based. The note with it: 50 μM substrate, M9 + 0.2% glucose, 37 °C; B2933 with mutant pBR-yhjE; labelled compound.
Data set [5] addresses YhjE (Escherichia coli, UniProt P37643, T273I). Kind of data set: radiolabelled uptake into whole cells, […] min. Format: cell-based. As to conditions: 50 μM substrate, M9 + 0.2% glucose, 37 °C; B2933 with mutant pBR-yhjE; labelled compound.
Data set [6] concerns the target YhjE (Escherichia coli, UniProt P37643, M359I). Briefly: radiolabelled uptake into whole cells, […] min. The format is cell-based. The note with it: 50 μM substrate, M9 + 0.2% glucose, 37 °C; B2933 with mutant pBR-yhjE; labelled compound.
The target of data set [7] is YhjE (Escherichia coli, UniProt P37643, P55S). Briefly: radiolabelled uptake into whole cells, […] min. The format is cell-based. The note with it: 50 μM substrate, M9 + 0.2% glucose, 37 °C; B2933 with mutant pBR-yhjE; labelled compound.
Data set [8] concerns the target T3, YhjE (Escherichia coli, UniProt P37643).
T3 sequence (P37643 1-440): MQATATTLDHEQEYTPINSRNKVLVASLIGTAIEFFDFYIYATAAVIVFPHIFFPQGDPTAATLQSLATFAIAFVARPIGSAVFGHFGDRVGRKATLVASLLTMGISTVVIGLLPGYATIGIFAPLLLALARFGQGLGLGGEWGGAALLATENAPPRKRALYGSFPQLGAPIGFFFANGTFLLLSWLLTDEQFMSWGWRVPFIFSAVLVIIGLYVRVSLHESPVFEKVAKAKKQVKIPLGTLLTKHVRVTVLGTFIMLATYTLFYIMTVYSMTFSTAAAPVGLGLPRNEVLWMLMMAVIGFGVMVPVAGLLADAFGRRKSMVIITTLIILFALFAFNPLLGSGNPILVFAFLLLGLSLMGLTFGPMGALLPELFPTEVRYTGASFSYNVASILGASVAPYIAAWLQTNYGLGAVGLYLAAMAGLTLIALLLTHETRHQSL
Briefly: inhibition of L-[3H]isoleucine uptake into whole cells, […] min. The note with it: 50 μM L-[3H]isoleucine, M9 + 0.2% glucose, 37 °C; B2394[pBR-yhjE]; single replicate. The format is cell-based.

Substrate in data set [9]: CC(C)[C@H](N)C(=O)O
Kind of data set: radiolabelled uptake into whole cells. The format is cell-based, Escherichia coli. The note with it: M9 + 0.2% glucose, 37 °C, B2933[pUC-yhjE], proton symport, labelled compound.

Substrate in data set [10]: CC[C@H](C)[C@H](N)C(=O)O
Briefly: radiolabelled uptake into whole cells. The note with it: M9 + 0.2% glucose, 37 °C, B2933[pUC-yhjE], proton symport, labelled compound. Format: cell-based, Escherichia coli.

YhjE (Escherichia coli, UniProt P37643, P55S), sequence (P37643 whole entry P55S): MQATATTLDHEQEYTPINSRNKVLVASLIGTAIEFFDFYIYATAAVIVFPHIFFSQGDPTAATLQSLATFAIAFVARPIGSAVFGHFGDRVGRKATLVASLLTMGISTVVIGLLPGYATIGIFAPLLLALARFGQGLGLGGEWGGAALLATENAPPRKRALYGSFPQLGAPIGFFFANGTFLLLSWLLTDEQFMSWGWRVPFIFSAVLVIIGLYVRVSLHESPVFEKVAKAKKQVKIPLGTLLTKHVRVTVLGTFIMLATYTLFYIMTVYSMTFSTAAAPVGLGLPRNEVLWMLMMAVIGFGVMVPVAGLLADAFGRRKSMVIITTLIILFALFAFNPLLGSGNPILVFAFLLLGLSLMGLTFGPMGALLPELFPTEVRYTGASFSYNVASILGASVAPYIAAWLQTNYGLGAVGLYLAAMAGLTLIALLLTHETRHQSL
YhjE (Escherichia coli, UniProt P37643, T276I), sequence (P37643 whole entry T276I): as the sequence (P37643 whole entry P55S) above, with S55P, T276I counted along it
YhjE (Escherichia coli, UniProt P37643, T273I), sequence (P37643 whole entry T273I): as the sequence (P37643 whole entry P55S) above, with S55P, T273I counted along it
YhjE (Escherichia coli, UniProt P37643, M359I), sequence (P37643 whole entry M359I): as the sequence (P37643 whole entry P55S) above, with S55P, M359I counted along it
YhjE (Escherichia coli, UniProt P37643, S271F/V290M), sequence (P37643 whole entry S271F/V290M): as the sequence (P37643 whole entry P55S) above, with S55P, S271F, V290M counted along it
T1 sequence (P0AD99 whole entry): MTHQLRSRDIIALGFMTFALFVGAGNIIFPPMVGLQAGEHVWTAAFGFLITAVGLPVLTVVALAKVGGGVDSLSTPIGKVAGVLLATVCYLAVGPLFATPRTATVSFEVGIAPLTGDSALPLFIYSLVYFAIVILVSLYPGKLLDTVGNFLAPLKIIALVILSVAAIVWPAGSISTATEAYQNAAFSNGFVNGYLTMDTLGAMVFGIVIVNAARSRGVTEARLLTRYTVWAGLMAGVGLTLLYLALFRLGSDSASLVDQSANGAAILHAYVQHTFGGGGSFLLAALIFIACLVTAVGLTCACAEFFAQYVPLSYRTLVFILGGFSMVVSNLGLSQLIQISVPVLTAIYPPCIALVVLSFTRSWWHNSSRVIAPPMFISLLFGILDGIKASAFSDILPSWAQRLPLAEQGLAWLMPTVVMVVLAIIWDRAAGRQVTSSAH
T2 sequence (P0AD96 24-367): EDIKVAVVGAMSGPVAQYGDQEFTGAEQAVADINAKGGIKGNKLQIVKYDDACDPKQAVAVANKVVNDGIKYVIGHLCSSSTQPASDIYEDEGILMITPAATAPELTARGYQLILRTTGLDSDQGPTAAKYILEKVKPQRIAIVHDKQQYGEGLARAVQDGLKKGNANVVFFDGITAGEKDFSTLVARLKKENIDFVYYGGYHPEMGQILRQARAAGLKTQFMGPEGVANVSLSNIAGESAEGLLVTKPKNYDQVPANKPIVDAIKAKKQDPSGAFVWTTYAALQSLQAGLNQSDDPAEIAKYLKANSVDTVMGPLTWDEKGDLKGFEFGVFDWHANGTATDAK
T2 sequence (P0AEX7 whole entry partner): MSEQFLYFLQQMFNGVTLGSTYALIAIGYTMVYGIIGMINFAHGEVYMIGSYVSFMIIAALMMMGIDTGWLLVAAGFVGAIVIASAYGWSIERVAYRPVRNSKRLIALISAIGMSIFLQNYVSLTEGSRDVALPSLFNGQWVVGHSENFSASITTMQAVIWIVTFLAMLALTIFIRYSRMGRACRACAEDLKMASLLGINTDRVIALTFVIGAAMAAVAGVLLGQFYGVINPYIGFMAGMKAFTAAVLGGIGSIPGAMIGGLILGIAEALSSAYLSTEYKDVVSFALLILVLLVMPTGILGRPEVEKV
T2 sequence (P22729 whole entry partner): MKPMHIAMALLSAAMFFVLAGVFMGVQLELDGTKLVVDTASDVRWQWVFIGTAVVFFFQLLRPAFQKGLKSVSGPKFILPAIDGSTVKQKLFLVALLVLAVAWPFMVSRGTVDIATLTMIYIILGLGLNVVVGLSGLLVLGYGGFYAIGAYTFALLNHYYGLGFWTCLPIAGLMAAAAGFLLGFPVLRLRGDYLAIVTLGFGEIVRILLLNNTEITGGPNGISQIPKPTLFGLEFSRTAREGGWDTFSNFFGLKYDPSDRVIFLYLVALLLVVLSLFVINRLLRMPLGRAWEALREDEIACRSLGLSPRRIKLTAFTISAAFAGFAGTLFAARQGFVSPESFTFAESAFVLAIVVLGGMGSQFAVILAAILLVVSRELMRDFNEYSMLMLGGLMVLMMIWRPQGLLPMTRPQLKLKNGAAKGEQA
T2 sequence (P22731 whole entry partner): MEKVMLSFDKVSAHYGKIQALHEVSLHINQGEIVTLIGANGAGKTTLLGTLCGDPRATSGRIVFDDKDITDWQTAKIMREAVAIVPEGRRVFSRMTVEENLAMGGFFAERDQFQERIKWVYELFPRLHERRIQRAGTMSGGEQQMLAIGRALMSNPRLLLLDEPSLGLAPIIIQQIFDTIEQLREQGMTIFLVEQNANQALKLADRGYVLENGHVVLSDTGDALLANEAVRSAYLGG
T2 sequence (P0A9S7 whole entry partner): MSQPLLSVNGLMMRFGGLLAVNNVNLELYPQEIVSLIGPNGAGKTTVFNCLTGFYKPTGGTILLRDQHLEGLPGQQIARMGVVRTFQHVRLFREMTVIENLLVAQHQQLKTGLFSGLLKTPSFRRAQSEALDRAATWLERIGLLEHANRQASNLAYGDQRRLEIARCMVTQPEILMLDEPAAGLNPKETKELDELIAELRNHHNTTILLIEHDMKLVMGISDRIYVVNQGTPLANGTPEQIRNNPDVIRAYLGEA

Regarding `CC(C)[C@H](N)C(=O)O` [L-valine], in data set [1], the uptake rate entry is “Comparison of L-valine–specific activity of YhjE, LIV-I, and BrnQ”.
Regarding `CC[C@H](C)[C@H](N)C(=O)O` [L-isoleucine], the uptake rate entry in [2] is “L-isoleucine uptake was concomitantly reduced”; in [3], “Comparison of L-isoleucine–specific activity of YhjE, LIV-I, and BrnQ”; in data set [4] it was “L-isoleucine uptake was concomitantly reduced”; in data set [1] it was “Comparison of L-isoleucine–specific activity of YhjE, LIV-I, and BrnQ”; in data set [5], “L-isoleucine uptake was concomitantly reduced”; in data set [6], “L-isoleucine uptake was concomitantly reduced”. In addition, the uptake rate result in [7] is reported as “L-isoleucine uptake was concomitantly reduced”.
For `N[C@@H](Cc1ccc(O)cc1)C(=O)O` [L-tyrosine], the “% inhibition at 30-fold molar excess” value in [8] is “L-tyrosine and L-cysteine, which are structurally unrelated to branched-chain amino acids, produced pronounced inhibitory effects”.
With `N[C@@H](CS)C(=O)O` [L-cysteine], the “% inhibition at 30-fold molar excess” value in data set [8] is “L-tyrosine and L-cysteine, which are structurally unrelated to branched-chain amino acids, produced pronounced inhibitory effects”.
Regarding `CC(C)C[C@H](N)C(=O)O` [L-leucine], the uptake rate result in [2] was “The lowest effect was observed for the T276I substitution”; in data set [4] it was “In every case, L-leucine uptake was elevated relative to cells harboring the wild-type pBR-yhjE”; in data set [5], “In every case, L-leucine uptake was elevated relative to cells harboring the wild-type pBR-yhjE”; in data set [6] it was “YhjE M359I variant exhibited L-leucine transport activity more than twofold higher than the wild type”; in data set [7], “In every case, L-leucine uptake was elevated relative to cells harboring the wild-type pBR-yhjE”.

B1: YhjE (Escherichia coli K-12) (protein)
chain: MQATATTLDHEQEYTPINSRNKVLVASLIGTAIEFFDFYIYATAAVIVFPHIFFPQGDPTAATLQSLATFAIAFVARPIGSAVFGHFGDRVGRKATLVASLLTMGISTVVIGLLPGYATIGIFAPLLLALARFGQGLGLGGEWGGAALLATENAPPRKRALYGSFPQLGAPIGFFFANGTFLLLSWLLTDEQFMSWGWRVPFIFSAVLVIIGLYVRVSLHESPVFEKVAKAKKQVKIPLGTLLTKHVRVTVLGTFIMLATYTLFYIMTVYSMTFSTAAAPVGLGLPRNEVLWMLMMAVIGFGVMVPVAGLLADAFGRRKSMVIITTLIILFALFAFNPLLGSGNPILVFAFLLLGLSLMGLTFGPMGALLPELFPTEVRYTGASFSYNVASILGASVAPYIAAWLQTNYGLGAVGLYLAAMAGLTLIALLLTHETRHQSL
Consider B1, for which the Km was determined as 86.7 µM in data set [9] and 70.5 µM in [10].

Broadly, the Km is the substrate concentration at which the rate is half of its maximum.
